Where a SMILES comes first, the peptide text is derived from it. [ ]: non-standard residue; d: D form. pGlu = O=C1CC[C@@H](C(=O)O)N1; Thz = O=C(O)[C@@H]1CSCN1
Assays:
[1] = biological target: Neuronal acetylcholine receptor subunit alpha-4 (Homo sapiens, UniProt P43681)
D(1A) dopamine receptor = D(1A) dopamine receptor (Homo sapiens, UniProt P21728); assay type: functional, cell-based
[2] = biological target: Gamma-aminobutyric acid receptor subunit alpha-1 (Rattus norvegicus, UniProt P62813)
[3] = biological target: Glutamate receptor ionotropic, NMDA 1 (Rattus norvegicus, UniProt P35439)
[4] = biological target: T1, 5-hydroxytryptamine receptor 1A (Homo sapiens, UniProt P08908); assay type: functional, cell-based
T1 sequence (P08908 whole entry): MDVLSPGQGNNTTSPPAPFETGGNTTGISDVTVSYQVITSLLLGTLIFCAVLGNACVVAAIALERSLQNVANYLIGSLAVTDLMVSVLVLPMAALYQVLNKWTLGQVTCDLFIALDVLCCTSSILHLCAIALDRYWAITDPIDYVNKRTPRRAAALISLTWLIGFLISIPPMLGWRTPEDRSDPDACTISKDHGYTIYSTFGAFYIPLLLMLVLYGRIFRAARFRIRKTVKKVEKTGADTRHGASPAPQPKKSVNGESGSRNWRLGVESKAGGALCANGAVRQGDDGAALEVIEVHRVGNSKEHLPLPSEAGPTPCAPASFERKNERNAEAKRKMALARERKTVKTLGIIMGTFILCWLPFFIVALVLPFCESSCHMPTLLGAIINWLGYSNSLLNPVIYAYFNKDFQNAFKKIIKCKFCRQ

[5] = biological target: T2, 5-hydroxytryptamine receptor 2C (Homo sapiens, UniProt P28335)
T2 sequence (P28335 whole entry): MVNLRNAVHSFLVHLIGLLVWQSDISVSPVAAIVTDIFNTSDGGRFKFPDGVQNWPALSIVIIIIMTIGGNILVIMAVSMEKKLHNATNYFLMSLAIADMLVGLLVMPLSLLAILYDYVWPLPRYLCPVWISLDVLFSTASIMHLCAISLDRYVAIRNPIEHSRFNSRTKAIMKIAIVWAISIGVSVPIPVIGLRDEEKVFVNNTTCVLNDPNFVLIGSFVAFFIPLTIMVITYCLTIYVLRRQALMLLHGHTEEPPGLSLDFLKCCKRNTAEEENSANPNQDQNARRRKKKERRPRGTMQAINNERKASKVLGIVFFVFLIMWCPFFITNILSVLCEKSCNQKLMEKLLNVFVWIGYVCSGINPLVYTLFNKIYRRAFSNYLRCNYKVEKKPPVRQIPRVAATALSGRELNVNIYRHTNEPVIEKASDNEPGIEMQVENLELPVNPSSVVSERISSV

Glucocorticoid receptor = biological target: T3, Glucocorticoid receptor (Homo sapiens, UniProt P04150)
T3 sequence (P04150 whole entry): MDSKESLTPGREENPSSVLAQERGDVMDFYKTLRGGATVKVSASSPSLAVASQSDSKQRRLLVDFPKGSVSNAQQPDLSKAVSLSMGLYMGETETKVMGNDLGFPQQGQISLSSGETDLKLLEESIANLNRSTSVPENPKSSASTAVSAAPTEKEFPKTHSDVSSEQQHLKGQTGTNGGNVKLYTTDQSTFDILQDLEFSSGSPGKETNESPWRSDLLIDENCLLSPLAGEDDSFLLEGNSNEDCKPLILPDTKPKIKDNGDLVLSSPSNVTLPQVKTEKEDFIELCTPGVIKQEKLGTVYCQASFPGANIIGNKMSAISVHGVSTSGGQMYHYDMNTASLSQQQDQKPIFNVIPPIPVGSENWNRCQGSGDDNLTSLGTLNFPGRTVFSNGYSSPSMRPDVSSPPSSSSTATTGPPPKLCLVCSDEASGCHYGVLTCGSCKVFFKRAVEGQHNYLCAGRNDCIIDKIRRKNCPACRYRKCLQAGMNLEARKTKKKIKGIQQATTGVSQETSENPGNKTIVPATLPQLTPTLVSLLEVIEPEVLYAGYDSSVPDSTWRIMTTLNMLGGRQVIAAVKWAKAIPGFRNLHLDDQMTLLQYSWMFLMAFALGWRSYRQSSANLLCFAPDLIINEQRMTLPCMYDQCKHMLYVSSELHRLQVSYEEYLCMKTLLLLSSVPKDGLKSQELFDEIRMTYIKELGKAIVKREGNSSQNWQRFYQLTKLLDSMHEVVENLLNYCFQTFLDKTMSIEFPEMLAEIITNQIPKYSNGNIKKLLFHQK

[6] = biological target: 3',5'-cyclic-AMP phosphodiesterase 4D (Homo sapiens, UniProt Q08499); assay type: functional
Sequence of 3',5'-cyclic-AMP phosphodiesterase 4D (Q08499 whole entry): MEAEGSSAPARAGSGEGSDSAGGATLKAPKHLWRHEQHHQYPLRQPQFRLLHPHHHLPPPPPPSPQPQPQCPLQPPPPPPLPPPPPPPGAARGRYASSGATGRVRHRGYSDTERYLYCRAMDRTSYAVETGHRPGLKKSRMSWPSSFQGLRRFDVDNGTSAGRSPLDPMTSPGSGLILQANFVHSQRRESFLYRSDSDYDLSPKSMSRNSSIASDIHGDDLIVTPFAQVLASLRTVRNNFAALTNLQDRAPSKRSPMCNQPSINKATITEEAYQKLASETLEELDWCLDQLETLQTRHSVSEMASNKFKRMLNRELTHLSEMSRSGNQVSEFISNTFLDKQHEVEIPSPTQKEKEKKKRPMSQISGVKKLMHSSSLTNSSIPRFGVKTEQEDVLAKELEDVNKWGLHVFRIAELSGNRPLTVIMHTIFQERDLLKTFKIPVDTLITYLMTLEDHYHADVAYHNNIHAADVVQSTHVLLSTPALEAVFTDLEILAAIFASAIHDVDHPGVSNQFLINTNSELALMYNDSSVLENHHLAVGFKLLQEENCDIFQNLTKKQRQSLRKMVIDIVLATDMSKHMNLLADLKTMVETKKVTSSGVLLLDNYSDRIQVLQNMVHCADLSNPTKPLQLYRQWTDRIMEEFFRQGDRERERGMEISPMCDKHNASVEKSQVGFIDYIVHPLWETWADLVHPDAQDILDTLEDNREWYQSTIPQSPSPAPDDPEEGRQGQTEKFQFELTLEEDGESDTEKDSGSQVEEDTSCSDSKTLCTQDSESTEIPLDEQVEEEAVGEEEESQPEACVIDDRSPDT

Progesterone receptor = biological target: T4, Progesterone receptor (Homo sapiens, UniProt P06401); assay type: functional
T4 sequence (P06401 whole entry): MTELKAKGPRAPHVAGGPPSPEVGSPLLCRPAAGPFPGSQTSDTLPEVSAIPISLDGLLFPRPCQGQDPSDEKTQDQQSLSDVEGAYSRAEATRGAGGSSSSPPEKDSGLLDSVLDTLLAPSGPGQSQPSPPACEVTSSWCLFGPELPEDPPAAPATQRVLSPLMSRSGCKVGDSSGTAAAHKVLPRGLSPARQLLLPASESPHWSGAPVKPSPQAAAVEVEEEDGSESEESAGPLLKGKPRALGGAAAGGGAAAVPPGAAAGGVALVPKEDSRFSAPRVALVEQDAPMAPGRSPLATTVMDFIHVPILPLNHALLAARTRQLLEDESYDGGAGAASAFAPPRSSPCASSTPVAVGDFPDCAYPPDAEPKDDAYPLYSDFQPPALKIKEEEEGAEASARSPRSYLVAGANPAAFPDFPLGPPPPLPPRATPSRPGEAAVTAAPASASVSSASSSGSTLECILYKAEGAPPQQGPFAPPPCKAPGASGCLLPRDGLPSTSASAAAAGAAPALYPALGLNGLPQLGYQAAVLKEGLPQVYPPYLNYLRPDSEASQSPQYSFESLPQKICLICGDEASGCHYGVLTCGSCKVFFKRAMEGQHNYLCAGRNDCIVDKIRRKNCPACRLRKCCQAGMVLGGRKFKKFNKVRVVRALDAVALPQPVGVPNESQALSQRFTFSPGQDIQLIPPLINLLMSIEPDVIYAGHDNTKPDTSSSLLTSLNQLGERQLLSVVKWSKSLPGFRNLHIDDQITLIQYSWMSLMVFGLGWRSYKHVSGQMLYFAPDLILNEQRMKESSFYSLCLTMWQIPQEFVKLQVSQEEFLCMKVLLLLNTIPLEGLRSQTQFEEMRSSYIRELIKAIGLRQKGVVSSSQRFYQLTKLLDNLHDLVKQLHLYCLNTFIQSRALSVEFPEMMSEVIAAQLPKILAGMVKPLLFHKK

Histamine H3 receptor = Histamine H3 receptor (Homo sapiens, UniProt Q9Y5N1)
Sequence of Histamine H3 receptor (Q9Y5N1 whole entry): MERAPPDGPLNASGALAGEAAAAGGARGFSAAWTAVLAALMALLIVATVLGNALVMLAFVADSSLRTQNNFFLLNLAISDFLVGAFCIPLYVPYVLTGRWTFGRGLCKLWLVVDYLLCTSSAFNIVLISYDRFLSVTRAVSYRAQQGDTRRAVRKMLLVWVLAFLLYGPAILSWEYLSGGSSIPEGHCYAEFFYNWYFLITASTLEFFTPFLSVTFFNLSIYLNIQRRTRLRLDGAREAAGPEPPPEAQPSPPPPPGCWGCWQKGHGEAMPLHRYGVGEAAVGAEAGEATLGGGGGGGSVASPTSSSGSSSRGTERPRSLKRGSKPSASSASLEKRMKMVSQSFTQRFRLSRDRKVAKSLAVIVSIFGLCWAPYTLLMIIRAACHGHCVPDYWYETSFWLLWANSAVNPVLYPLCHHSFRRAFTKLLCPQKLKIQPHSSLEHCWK
Note: assay procedure not described here.

Sequence of D(1A) dopamine receptor (P21728 whole entry): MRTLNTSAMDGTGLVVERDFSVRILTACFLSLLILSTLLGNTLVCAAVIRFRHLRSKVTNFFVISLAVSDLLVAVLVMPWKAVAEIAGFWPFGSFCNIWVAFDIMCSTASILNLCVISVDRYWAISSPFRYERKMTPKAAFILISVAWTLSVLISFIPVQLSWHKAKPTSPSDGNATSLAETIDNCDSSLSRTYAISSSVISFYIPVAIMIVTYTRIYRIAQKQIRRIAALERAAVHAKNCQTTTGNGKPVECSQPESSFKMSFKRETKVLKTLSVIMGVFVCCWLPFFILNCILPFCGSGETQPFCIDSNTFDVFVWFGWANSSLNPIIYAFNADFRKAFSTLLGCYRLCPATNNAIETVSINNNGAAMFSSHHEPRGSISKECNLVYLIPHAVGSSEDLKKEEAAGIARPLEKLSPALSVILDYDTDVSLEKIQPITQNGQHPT
Sequence of Gamma-aminobutyric acid receptor subunit alpha-1 (P62813 whole entry): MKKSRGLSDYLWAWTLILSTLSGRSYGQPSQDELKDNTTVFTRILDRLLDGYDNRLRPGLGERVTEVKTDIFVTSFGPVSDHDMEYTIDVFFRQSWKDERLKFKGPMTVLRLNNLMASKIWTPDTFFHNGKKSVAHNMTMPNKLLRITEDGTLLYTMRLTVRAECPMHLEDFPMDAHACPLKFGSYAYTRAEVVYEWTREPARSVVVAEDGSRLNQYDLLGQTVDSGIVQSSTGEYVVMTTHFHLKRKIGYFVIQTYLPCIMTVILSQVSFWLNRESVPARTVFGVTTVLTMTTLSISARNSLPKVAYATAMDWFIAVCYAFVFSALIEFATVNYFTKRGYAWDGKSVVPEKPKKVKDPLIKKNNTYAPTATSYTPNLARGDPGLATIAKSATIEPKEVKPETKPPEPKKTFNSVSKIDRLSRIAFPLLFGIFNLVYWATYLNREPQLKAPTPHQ
Sequence of Neuronal acetylcholine receptor subunit alpha-4 (P43681 whole entry): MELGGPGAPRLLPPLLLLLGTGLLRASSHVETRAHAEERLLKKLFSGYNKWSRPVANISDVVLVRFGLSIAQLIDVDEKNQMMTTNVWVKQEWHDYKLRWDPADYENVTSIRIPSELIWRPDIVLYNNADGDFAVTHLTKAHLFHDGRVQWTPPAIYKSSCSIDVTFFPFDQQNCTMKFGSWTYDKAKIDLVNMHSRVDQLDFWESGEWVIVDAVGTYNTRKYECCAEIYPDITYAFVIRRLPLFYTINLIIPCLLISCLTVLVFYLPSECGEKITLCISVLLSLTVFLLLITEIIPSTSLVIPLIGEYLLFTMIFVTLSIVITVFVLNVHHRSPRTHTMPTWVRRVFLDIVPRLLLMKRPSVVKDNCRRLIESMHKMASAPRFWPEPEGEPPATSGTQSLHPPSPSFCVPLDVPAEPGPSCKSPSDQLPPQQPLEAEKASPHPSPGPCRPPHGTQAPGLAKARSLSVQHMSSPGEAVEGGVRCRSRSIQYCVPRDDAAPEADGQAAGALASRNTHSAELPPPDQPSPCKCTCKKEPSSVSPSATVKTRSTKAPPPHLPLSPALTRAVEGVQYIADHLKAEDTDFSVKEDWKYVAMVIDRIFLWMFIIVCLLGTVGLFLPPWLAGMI

Row | AC50 [1] | AC50 (D(1A) dopamine receptor) | AC50 [2] | AC50 [3] | AC50 [4] | AC50 [5] | AC50 (Glucocorticoid receptor) | AC50 [6] | AC50 (Progesterone receptor) | AC50 (Histamine H3 receptor) | SMILES
1 | > 30 µM | > 30 µM | > 30 µM | > 30 µM | > 30 µM | > 30 µM | > 30 µM | > 30 µM | > 30 µM | > 30 µM | OC[C@H]1O[C@@H](Oc2cc(O)cc(/C=C/c3ccc(O)cc3)c2)[C@H](O)[C@@H](O)[C@@H]1O [PICEID]
2 | > 30 µM | > 30 µM | > 30 µM | > 30 µM | > 30 µM | > 30 µM | > 30 µM | > 30 µM | > 30 µM | > 30 µM | O=C1CC[C@@H](C(=O)N2CSC[C@H]2C(=O)O)N1 [PIDOTIMOD] ([pGlu]-[Thz]-OH)
3 | > 30 µM | > 30 µM | > 30 µM | > 30 µM | > 30 µM | > 30 µM | > 30 µM | > 30 µM | > 30 µM | > 30 µM | CCC(NC(C)C)C(O)c1ccc(O)c2[nH]c(=O)ccc12 (stereo not given) [PROCATEROL]
4 | > 30 µM | > 30 µM | > 30 µM | > 30 µM | > 30 µM | > 30 µM | > 30 µM | > 30 µM | > 30 µM | > 30 µM | C=CC[N+]1([C@H]2C[C@H]3[C@@H]4CC[C@H]5C[C@H](O)[C@@H](N6CCOCC6)C[C@]5(C)[C@H]4CC[C@]3(C)[C@H]2OC(C)=O)CCCC1 [ROCURONIUM]
5 | > 30 µM | > 30 µM | > 30 µM | > 30 µM | > 30 µM | > 30 µM | > 30 µM | > 30 µM | > 30 µM | 22 µM | CCN1CCCC1CNC(=O)c1cc(S(=O)(=O)CC)ccc1OC (stereo not given) [SULTOPRIDE]
6 | > 30 µM | > 30 µM | > 30 µM | > 30 µM | > 30 µM | > 30 µM | > 30 µM | > 30 µM | > 30 µM | 3.3 µM | C=CCN1CCc2nc(N)sc2CC1 [TALIPEXOLE]
7 | > 30 µM | > 30 µM | > 30 µM | > 30 µM | > 30 µM | > 30 µM | > 30 µM | > 30 µM | > 30 µM | > 30 µM | Cn1c(=O)c2c(ncn2CCOC(=O)C(C)(C)Oc2ccc(Cl)cc2)n(C)c1=O [THEOFIBRATE]
8 | > 30 µM | > 30 µM | > 30 µM | > 30 µM | > 30 µM | > 30 µM | > 30 µM | > 30 µM | > 30 µM | > 30 µM | COc1cc(C(=O)NC2CCCNC2)cc(OC)c1OC (stereo not given) [TROXIPIDE]
9 | > 10 µM | > 10 µM | > 10 µM | > 10 µM | > 10 µM | > 30 µM | > 30 µM | > 30 µM | > 30 µM | > 10 µM | CC(c1cc2ccccc2s1)N(O)C(N)=O (stereo not given) [ZILEUTON]

Row | SMILES | AC50 [1] | AC50 (D(1A) dopamine receptor) | AC50 [2] | AC50 [3] | AC50 [4] | AC50 [5] | AC50 (Glucocorticoid receptor) | AC50 [6] | AC50 (Progesterone receptor) | AC50 (Histamine H3 receptor)
10 | CC(C)(C)NCC(O)c1ccccc1Cl (stereo not given) [TULOBUTEROL] | > 30 µM | > 30 µM | > 30 µM | > 30 µM | > 30 µM | > 30 µM | > 30 µM | > 30 µM | > 30 µM | > 30 µM

— ChEMBL document CHEMBL5291721, “A preclinical secondary pharmacology resource illuminates target-adverse drug reaction associations of marketed drugs” (Nat Commun, 2023)
